Experimental data from patent US11325899B2, “Benzofurane and benzothiophene derivatives as PGE2 receptor modulators” (IDORSIA PHARMACEUTICALS LTD, priority 2017, dated 2022).
One block for each compound: values may come before it.

Legend:
Assay type in all cases: cell-based
PTGER2 (EP2) = biological target: T1, PTGER2 (EP2) (Homo sapiens, UniProt P43116); assay: hEP2 b-arrestin assay (PathHunter HEK 293 PTGER2 b-arrestin cells); conditions: antagonistic activity, beta-arrestin assay; read-out: hEP2 b-arr IC50
T1 construct: host or cells: HEK 293 (PathHunter PTGER2 b-arrestin cell line)
T1 sequence (P43116 whole entry): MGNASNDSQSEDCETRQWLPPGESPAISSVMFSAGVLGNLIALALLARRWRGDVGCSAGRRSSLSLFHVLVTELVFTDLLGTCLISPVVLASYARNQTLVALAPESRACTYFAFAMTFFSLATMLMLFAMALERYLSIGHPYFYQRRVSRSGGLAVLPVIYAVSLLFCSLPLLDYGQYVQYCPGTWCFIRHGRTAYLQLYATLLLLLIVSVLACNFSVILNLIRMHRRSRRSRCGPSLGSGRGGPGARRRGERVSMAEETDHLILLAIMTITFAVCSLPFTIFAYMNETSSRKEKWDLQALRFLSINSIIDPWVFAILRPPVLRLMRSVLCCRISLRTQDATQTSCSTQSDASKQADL
Method in brief: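 PathHunter HEK293 cells with ProLink-tagged EP2 and EA-β-arrestin 2 preincubated 15 min at 37 °C with compound (10 μM-2 nM or 1 μM-0.2 nM), then stimulated 120 min with 5 μM PGE2 (EC80). β-gal complementation read by chemiluminescence; IC50 from duplicate dose-response versus DMSO.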

EP4 receptor = biological target: T2, EP4 receptor (Homo sapiens, UniProt P35408); assay: hEP4 cAMP assay (BT549 breast cancer cells, HTRF cAMP, PGE2 stimulation); conditions: antagonistic activity, PGE2 6 nM (EC80)
T2 construct: BT549 breast cancer cells, express high endogenous EP4 levels and very low EP2 levels; host or cells: BT549 breast cancer cells
T2 sequence (P35408 whole entry): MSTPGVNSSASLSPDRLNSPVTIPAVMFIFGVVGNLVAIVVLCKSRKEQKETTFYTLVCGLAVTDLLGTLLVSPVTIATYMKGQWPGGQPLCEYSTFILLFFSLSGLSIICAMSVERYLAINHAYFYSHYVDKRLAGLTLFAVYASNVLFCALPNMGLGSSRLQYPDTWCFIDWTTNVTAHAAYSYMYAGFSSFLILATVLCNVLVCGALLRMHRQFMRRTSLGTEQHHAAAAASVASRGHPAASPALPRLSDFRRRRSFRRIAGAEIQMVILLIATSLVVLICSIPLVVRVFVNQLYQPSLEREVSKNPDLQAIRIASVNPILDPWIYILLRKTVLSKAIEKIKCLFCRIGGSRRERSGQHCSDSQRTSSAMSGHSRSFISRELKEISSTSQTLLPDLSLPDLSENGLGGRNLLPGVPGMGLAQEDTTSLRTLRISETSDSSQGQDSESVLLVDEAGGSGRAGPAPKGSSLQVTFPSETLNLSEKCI
Method in brief: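 BT549 cells, with endogenous EP4 and very low EP2, were preincubated 45 min at room temperature with compound in HBSS/HEPES/BSA buffer with 2 mM IBMX. They were then stimulated 30 min with 6 nM PGE2 (EC80). cAMP was measured by HTRF competitive immunoassay against a calibrator; IC50 from duplicate dose-response as % of DMSO control.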

PTGER4 (EP4) = biological target: T3, PTGER4 (EP4) (Homo sapiens, UniProt P35408); assay: hEP4 b-arrestin assay (PathHunter HEK 293 PTGER4 b-arrestin cells); conditions: antagonistic activity, beta-arrestin assay; read-out: hEP4 b-arr IC50
T3 construct: host or cells: HEK 293 (PathHunter PTGER4 b-arrestin cell line)
T3 sequence (P35408 whole entry): as above
Method in brief: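 PathHunter HEK 293 cells expressing ProLink-tagged human EP4 and EA-β-arrestin 2, seeded 24 h before. Compounds (10 μM–2 nM or 1 μM–0.2 nM) preincubated 15 min at 37 °C, then 20 nM PGE2 (EC80) for 120 min at 37 °C. β-gal complementation luminescence read; IC50 from duplicate dose-response curves versus DMSO control.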

SMILES: CCCc1cc(-c2cc(NCCc3c(C#N)sc4c(C)cc(F)cc34)ncn2)ccc1C(=O)O [Example 167, 4-{6-[2-(2-Cyano-5-fluoro-7-methyl-benzo[b]thiophen-3-yl)-ethylamino]-pyrimidin-4-yl}-2-propyl-benzoic acid]
IC50 (PTGER2 (EP2)): 5 nM
IC50 (EP4 receptor): 29 nM
IC50 (PTGER4 (EP4)): 34 nM

SMILES: COc1cc(-c2cc(NCCc3c(C#N)sc4c(C)cc(F)cc34)ncn2)ccc1CC(=O)O [Example 168, (4-{6-[2-(2-Cyano-5-fluoro-7-methyl-benzo[b]thiophen-3-yl)-ethylamino]-pyrimidin-4-yl}-2-methoxy-phenyl)-acetic acid]
IC50 (PTGER2 (EP2)): 65 nM
IC50 (EP4 receptor): 2990 nM
IC50 (PTGER4 (EP4)): 66 nM

SMILES: CCCOc1cc(-c2cc(NCCc3c(C#N)sc4c(C)cc(F)cc34)ncn2)ccc1CC(=O)O [Example 169, (4-{6-[2-(2-Cyano-5-fluoro-7-methyl-benzo[b]thiophen-3-yl)-ethylamino]-pyrimidin-4-yl}-2-propoxy-phenyl)-acetic acid]
IC50 (PTGER2 (EP2)): 30 nM
IC50 (EP4 receptor): 30 nM
IC50 (PTGER4 (EP4)): 100 nM

SMILES: CCCc1cc(-c2cc(NCCc3c(C#N)sc4c(C)cc(F)cc34)ncn2)ccc1CC(=O)O [Example 170, (4-{6-[2-(2-Cyano-5-fluoro-7-methyl-benzo[b]thiophen-3-yl)-ethylamino]-pyrimidin-4-yl}-2-propyl-phenyl)-acetic acid]
IC50 (PTGER2 (EP2)): 19 nM
IC50 (EP4 receptor): 13 nM
IC50 (PTGER4 (EP4)): 19 nM

SMILES: Cc1cc(F)cc2c(CCNc3cc(-c4ccc(CC(=O)O)c(OC(C)C)c4)ncn3)c(C#N)sc12 [Example 171, (4-{6-[2-(2-Cyano-5-fluoro-7-methyl-benzo[b]thiophen-3-yl)-ethylamino]-pyrimidin-4-yl}-2-isopropoxy-phenyl)-acetic acid]
IC50 (PTGER2 (EP2)): 59 nM
IC50 (EP4 receptor): 42 nM
IC50 (PTGER4 (EP4)): 57 nM

SMILES: Cc1cc(F)cc2c(CCNc3cc(-c4ccc(C(=O)O)c(OC(C)C)c4)ncn3)c(C#N)sc12 [Example 172, 4-{6-[2-(2-Cyano-5-fluoro-7-methyl-benzo[b]thiophen-3-yl)-ethylamino]-pyrimidin-4-yl}-2-isopropoxy-benzoic acid]
IC50 (PTGER2 (EP2)): 40 nM
IC50 (EP4 receptor): 70 nM
IC50 (PTGER4 (EP4)): 166 nM

SMILES: CCOc1cc(-c2cc(NCCc3c(C#N)sc4c(C)cc(F)cc34)ncn2)ccc1OCCC(=O)O [Example 176, 3-(4-{6-[2-(2-Cyano-5-fluoro-7-methyl-benzo[b]thiophen-3-yl)-ethylamino]-pyrimidin-4-yl}-2-ethoxy-phenoxy)-propionic acid]
IC50 (PTGER2 (EP2)): 9 nM
IC50 (EP4 receptor): 12 nM
IC50 (PTGER4 (EP4)): 19 nM

SMILES: Cc1sc2c(C)cc(F)cc2c1CCNc1cc(-c2ccc(C(=O)O)c(OCC(C)C)c2)ncn1 [Example 184, 4-{6-[2-(5-Fluoro-2,7-dimethyl-benzo[b]thiophen-3-yl)-ethylamino]-pyrimidin-4-yl}-2-isobutoxy-benzoic acid]
IC50 (PTGER2 (EP2)): 7 nM
IC50 (EP4 receptor): 553 nM
IC50 (PTGER4 (EP4)): 311 nM

Next, values leading:

IC50 (PTGER2 (EP2)): 41 nM
IC50 (EP4 receptor): 378 nM
IC50 (PTGER4 (EP4)): 164 nM
SMILES: Cc1sc2c(C)cc(F)cc2c1CCNc1cc(-c2ccc(CC(=O)O)c(CC(C)C)c2)ncn1 [Example 182, (4-{6-[2-(5-Fluoro-2,7-dimethyl-benzo[b]thiophen-3-yl)-ethylamino]-pyrimidin-4-yl}-2-isobutyl-phenyl)-acetic acid]

IC50 (PTGER2 (EP2)): 22 nM
IC50 (EP4 receptor): 252 nM
IC50 (PTGER4 (EP4)): 242 nM
SMILES: CCCc1cc(-c2cc(NCCc3c(C)sc4c(C)cc(F)cc34)ncn2)ccc1CC(=O)O [Example 186, (4-{6-[2-(5-Fluoro-2,7-dimethyl-benzo[b]thiophen-3-yl)-ethylamino]-pyrimidin-4-yl}-2-propyl-phenyl)-acetic acid]

IC50 (PTGER2 (EP2)): 20 nM
IC50 (EP4 receptor): 121 nM
IC50 (PTGER4 (EP4)): 92 nM
SMILES: CCOc1cc(-c2cc(NCCc3c(C)sc4c(C)cc(F)cc34)ncn2)ccc1C(=O)C(=O)O [Example 189, (2-Ethoxy-4-{6-[2-(5-fluoro-2,7-dimethyl-benzo[b]thiophen-3-yl)-ethylamino]-pyrimidin-4-yl}-phenyl)-oxo-acetic acid]

IC50 (PTGER2 (EP2)): 28 nM
IC50 (EP4 receptor): 219 nM
IC50 (PTGER4 (EP4)): 200 nM
SMILES: CCCOc1cc(-c2cc(NCCc3c(C)sc4c(C)cc(F)cc34)ncn2)ccc1CC(=O)O [Example 190, (4-{6-[2-(5-Fluoro-2,7-dimethyl-benzo[b]thiophen-3-yl)-ethylamino]-pyrimidin-4-yl}-2-propoxy-phenyl)-acetic acid]
